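Test compounds were applied to cells in 96-well plates for 48 hours at 5 doses. The concentration for 50% growth inhibition is given as GI50. TGI marks complete inhibition of growth.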
Legend:
Assay in all cases: NCI tumour cell line growth inhibition, 48 h
KM12 colon = system: KM12 colon
MCF7 breast = system: MCF7 breast
SK-OV-3 ovarian = system: SK-OV-3 ovarian
SK-MEL-5 melanoma = system: SK-MEL-5 melanoma
HT29 colon = system: HT29 colon
OVCAR-3 ovarian = system: OVCAR-3 ovarian
NCI-H460 lung = system: NCI-H460 lung
HCC-2998 colon = system: HCC-2998 colon
786-0 renal = system: 786-0 renal

| SMILES | GI50 (KM12 colon) [µM] | TGI (KM12 colon) [µM] | GI50 (MCF7 breast) [µM] | TGI (MCF7 breast) [µM] | GI50 (SK-OV-3 ovarian) [µM] | TGI (SK-OV-3 ovarian) [µM] | GI50 (SK-MEL-5 melanoma) [µM] | TGI (SK-MEL-5 melanoma) [µM] | GI50 (HT29 colon) [µM] | TGI (HT29 colon) [µM] | GI50 (OVCAR-3 ovarian) [µM] | TGI (OVCAR-3 ovarian) [µM] | GI50 (NCI-H460 lung) [µM] | TGI (NCI-H460 lung) [µM] | GI50 (HCC-2998 colon) [µM] | TGI (HCC-2998 colon) [µM] | GI50 (786-0 renal) [µM] | TGI (786-0 renal) [µM] |
| --- | --- | --- | --- | --- | --- | --- | --- | --- | --- | --- | --- | --- | --- | --- | --- | --- | --- | --- |
| CCN(CC)CCOCC[C@H]1CC[C@H]2[C@@H]3[C@H](C)Cc4cc(OS(N)(=O)=O)ccc4[C@H]3CC[C@]12C | 1.25 | 2.55 | 0.219 | 2.28 | 1.49 | 3.2 | 1.04 | 2.23 | 0.244 | 1.03 | 1.21 | 2.46 | 1.23 | 2.56 | 1.63 | 3.23 | 1.28 | 2.6 |
| Cc1c(N2CCCC2)cc2c(c1NC(=O)c1ccccc1Cl)C(C)(C)CC2(C)C |  | 30.3 |  | 28.4 |  | 27.2 |  | 33.7 |  | 29.4 |  | 21.3 |  | 26 |  | 25.9 |  | 27.8 |
| OC(c1cccc(-n2ccc(C(F)(F)F)n2)c1)c1cnccc1NC1CCCCCC1 (stereo unspecified) | 1.87 | 3.54 | 1.53 | 3.11 |  |  | 1.73 | 3.18 | 1.8 | 4.33 | 1.76 | 3.22 | 1.84 | 3.42 | 1.61 | 3.03 | 1.72 | 3.18 |
| CC1CC[C@]2(C(=O)O)CCC3(COC(=O)/C=C\c4ccc(O)cc4)C(=CCC4[C@@]5(C)CC[C@H](O)C(C)(C)C5CC[C@]43C)[C@@H]2[C@H]1C (stereo partly specified) |  | 25.7 |  |  |  | 21.6 |  | 40.7 |  | 35.5 |  | 37.1 |  | 35.5 |  | 33 |  | 43.4 |
| NC1=NC(=O)/C(=C/c2ccccc2[N+](=O)[O-])C(N)=N1 |  | > 100 |  |  |  | > 100 |  | > 100 |  | > 100 |  | > 100 |  | > 100 |  | > 100 |  | > 100 |
| CN1N=CSC12C(=O)N(c1ccc(Cl)cc1)C(=O)N2c1ccc(Cl)cc1 (stereo unspecified) |  | 30.3 |  |  |  | 32 |  | 15.1 |  | 32 |  | 4.54 |  | 20.4 |  | 37.7 |  | > 100 |
| Cc1cn(Cc2ccccc2CCO)c(=S)[nH]c1=O |  | > 100 |  |  |  | > 100 |  | > 100 |  | > 100 |  | > 100 |  | > 100 |  |  |  | > 100 |
| COc1cc(/C=C/c2ccncc2)cc(OC)c1OC |  | > 100 |  |  |  |  |  | > 100 |  | > 100 |  | > 100 |  | > 100 |  |  |  | > 100 |
| CC(C)(C)NNC(=O)/C(=C/c1ccc([N+](=O)[O-])cc1)NC(=O)c1ccccc1 |  | > 100 |  |  |  | > 100 |  | > 100 |  | > 100 |  | > 100 |  | > 100 |  | > 100 |  | > 100 |
| Cc1cc(N(CCC#N)CCC#N)ccc1/C=C1N=C(/C=C\c2ccccc2)OC\1=O |  | > 100 |  |  |  | > 100 |  | > 100 |  | > 100 |  | > 100 |  | > 100 |  | > 100 |  | > 100 |

Reference: PubChem BioAssay (NCI)
